Laboratory results from patent publication US9670261B2 (Sanofi, priority 2012, dated 2017).

Columns and labels:
in vivo = details: mouse, sc, 1 mg/kg
Protocol: Mice were dosed 1 mg/kg subcutaneously (s.c.). The mice were sacrified and blood samples were collected after 0.25, 0.5, 1, 2, 4, 8, 16 and 24 hours post application. Plasma samples were analyzed after protein precipitation via liquid chromatography mass spectrometry (LC/MS). PK parameters and half-life were calculated using WinonLin Version 5.2.1 (non-compartment model).

female NMRI-mice = test: Automated assessment of 22-hours feed intake in mice; format: in vivo; details: 0.1 mg/kg s.c.
Protocol: Female NMRI-mice of a body weight between 20 and 30 g were used. Mice were adapted to housing conditions for at least one week and for at least one day single-caged in the assessment equipment, when basal data were recorded simultaneously. On the study day, test product was administered subcutaneously close to the lights-off phase (12 h lights off) and assessment of feed consumption was directly started afterwards. Assessment included continued monitoring over 22 hours, while data are processed as mean over every 30 min. Repetition of this procedure over several days was possible. Restriction of assessment to 22 hours was for practical reasons to allow for reweighing of animals, refilling of feed and water and drug administration between procedures. Results could be assessed as cumulated data over 22 hours or differentiated to 30 min intervals. […] Statistical analyses were performed with Everstat 6.0 by two-way ANOVA on repeated measures and Dunnett's post-hoc analyses. Differences were considered statistically significant at the p<0.05 level. […] Lights-off phase (dark phase) started 4 hours later. […].

[1] = test system: female leptin-receptor deficient diabetic db/db mice; test: Blood glucose and HbA1c in leptin-receptor deficient diabetic db/db mice (method 3); format: in vivo; details: single 100 μg/kg s.c., fed db/db mice
Source text: Female BKS.Cg-m+/+Leprdb/J (db/db) and BKS.Cg-m+/+Leprdb/+(lean control) mice were obtained from Charles River Laboratories, Germany, at an age of 9-10 weeks. The animals were housed in groups in a specific pathogen-free barrier facility on a 12-h light/dark cycle with free access to water and rodent-standard chow. After 1 week of acclimatization, blood samples were drawn from the tail without anaesthesia and blood glucose (method: d-glucose hexokinase, hemolysate, AU640 Beckman Coulter) and HbA1c level (method: hemolysate, Cobas6000 c501, Roche Diagnostics, Germany) were determined. […] The volume of administration was 5 mL/kg. The animals had access to water and chow during the experiment, food consumption was determined at all time points of blood sampling. […] Blood sampling was performed by tail incision without anaesthesia. […] At the end of the study, blood samples (tail, no anaesthesia) were analyzed for glucose and HbA1c. […] Statistical analyses were performed with Everstat 6.0 by repeated measures two-way ANOVA and Dunnett's post-hoc analyses. Differences versus vehicle-treated db/db control mice were considered statistically significant at the p<0.05 level. […] At predefined time points, more blood samples were taken to measure blood glucose and generate the blood glucose profile over 24 h. […] Blood glucose and HbA1c were determined before start of treatment and at the end of the study after 4 weeks of treatment. […] Before treatment started, no significant differences in blood glucose levels could be detected between db/db groups, only the lean control animals had significant lower glucose levels. During the 4 weeks of treatment, glucose levels increased in the vehicle-treated db/db control group, indicating a worsening of the diabetic situation.

human GIP receptor = molecular target: T1, human GIP receptor (Homo sapiens, UniProt P48546); test: cAMP response (HTRF) of HEK-293 cells stably expressing human GIP receptor; format: cell-based; details: Table 7; cAMP formation; read-out: EC50 hGIP R
T1 construct: expressed in transfected cells
T1 sequence (P48546 22-466): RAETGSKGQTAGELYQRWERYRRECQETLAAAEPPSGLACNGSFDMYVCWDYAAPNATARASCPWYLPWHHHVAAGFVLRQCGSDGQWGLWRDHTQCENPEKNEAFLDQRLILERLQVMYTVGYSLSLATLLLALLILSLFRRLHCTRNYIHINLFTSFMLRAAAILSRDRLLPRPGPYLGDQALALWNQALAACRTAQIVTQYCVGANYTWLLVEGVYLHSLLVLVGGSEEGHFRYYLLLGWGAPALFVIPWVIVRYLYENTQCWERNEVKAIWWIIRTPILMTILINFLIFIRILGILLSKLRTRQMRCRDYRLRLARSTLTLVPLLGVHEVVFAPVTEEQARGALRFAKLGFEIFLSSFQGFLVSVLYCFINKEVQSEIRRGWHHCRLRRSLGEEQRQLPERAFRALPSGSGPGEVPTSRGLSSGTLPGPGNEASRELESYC
Summary of the method: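 HEK-293 cells stably expressing the receptor were resuspended at 400000 cells/ml in HBSS/20 mM HEPES/0.1% BSA buffer with 2 mM IBMX. Cells were stimulated with compound for 30 min at room temperature. Intracellular cAMP was measured by HTRF.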

With CCCCCCCCCCCCCCCC(=O)N[C@@H](CCC(=O)NCCCC[C@H](NC(=O)[C@H](CCC(N)=O)NC(=O)[C@@H](NC(=O)[C@H](CO)NC(=O)[C@H](CC(C)C)NC(=O)[C@H](CC(=O)O)NC(=O)[C@H](CO)NC(=O)[C@@H](NC(=O)[C@H](Cc1ccccc1)NC(=O)[C@@H](NC(=O)CNC(=O)[C@H](CCC(=O)O)NC(=O)C(C)(C)NC(=O)[C@@H](N)Cc1ccc(O)cc1)[C@@H](C)O)[C@@H](C)O)[C@@H](C)CC)C(=O)N[C@@H](CC(=O)O)C(=O)N[C@@H](CCCCN)C(=O)N[C@@H](CCCNC(=N)N)C(=O)N[C@@H](C)C(=O)N[C@@H](C)C(=O)N[C@@H](CCC(N)=O)C(=O)N[C@@H](CC(=O)O)C(=O)N[C@@H](Cc1ccccc1)C(=O)N[C@H](C(=O)N[C@@H](CCC(=O)O)C(=O)N[C@@H](Cc1c[nH]c2ccccc12)C(=O)N[C@@H](CC(C)C)C(=O)N[C@@H](CCCCN)C(=O)N[C@@H](CC(N)=O)C(=O)NCC(=O)NCC(=O)N1CCC[C@H]1C(=O)N[C@@H](CO)C(=O)N[C@@H](CO)C(=O)NCC(=O)N[C@@H](C)C(=O)N1CCC[C@H]1C(=O)N1CCC[C@H]1C(=O)N1CCC[C@H]1C(=O)N[C@@H](CO)C(N)=O)[C@@H](C)CC)C(=O)O [SEQ ID NO: 12, Y-Aib-E-G-T-F-T-S-D-L-S-I-Q-K(γE-x53)-DKRAAQDFIEWLKNGGPSSGAPPPS-NH2] the Cmax (in vivo) was 3.79 µg/mL, the half-life (in vivo) was 2.8 h and the “reduction of feed intake after 22 hours” value (female NMRI-mice) was 71%. The “blood glucose compared to db/db control mice, 24 h profile” value [1] was “significant decrease in blood glucose”, the EC50 (human GIP receptor) was 8.9 pM and the solubility at 2 h (physchem; pH 4.5) was greater than 1 mg/mL. It also gave a solubility at 2 h (physchem; pH 7.4) greater than 1 mg/mL.
